Test results from patent US8609703B2, “Modulators of ATP-binding cassette transporters” (Vertex Pharmaceuticals Incorporated, priority 2005, dated 2013).

Biological target: T1, ΔF508-CFTR (Homo sapiens, UniProt P13569, DEL508-508)
T1 construct: expressed in transfected cells
Test: EC50 and relative efficacy as modulators of ΔF508-CFTR (membrane potential optical assay)
Assay type: cell-based
Settings: for % Activity: relative efficacy
Text: I) Membrane Potential Optical Methods for Assaying ΔF508-CFTR Modulation Properties of Compounds
The optical membrane potential assay utilized voltage-sensitive FRET sensors described by Gonzalez and Tsien (See., Gonzalez, J. E. and R. Y. Tsien (1995) “Voltage sensing by fluorescence resonance energy transfer in single cells” Biophys J 69(4): 1272-80, and Gonzalez, J. E. and R. Y. Tsien (1997) “Improved indicators of cell membrane potential that use fluorescence resonance energy transfer” Chem Biol 4(4): 269-77) in combination with instrumentation for measuring fluorescence changes such as the Voltage/Ion Probe Reader (VIPR) (See Gonzalez, J. E., K. Oades, et al. (1999) “Cell-based assays and instrumentation for screening ion-channel targets” Drug Discov Today 4(9): 431-439).
These voltage sensitive assays are based on the change in fluorescence resonant energy transfer (FRET) between the membrane-soluble, voltage-sensitive dye, DiSBAC2(3), and a fluorescent phospholipid, CC2-DMPE, which is attached to the outer leaflet of the plasma membrane and acts as a FRET donor. Changes in membrane potential (Vm) cause the negatively charged DiSBAC2(3) to redistribute across the plasma membrane and the amount of energy transfer from CC2-DMPE changes accordingly. The changes in fluorescence emission were monitored using VIPR which is an integrated liquid handler and fluorescent detector designed to conduct cell-based screens in 96- or 384-well microtiter plates.
To identify small molecules that correct the trafficking defect associated with ΔF508-CFTR; a single-addition HTS assay format was developed. The cells were incubated in serum-free medium for 16 hrs at 37° C. in the presence or absence (negative control) of test compound. As a positive control, cells plated in 384-well plates were incubated for 16 hrs at 27° C. to “temperature-correct” ΔF508-CFTR. The cells were subsequently rinsed 3× with Krebs Ringers solution and loaded with the voltage-sensitive dyes. To activate ΔF508-CFTR, 10 μM forskolin and the CFTR potentiator, genistein (20 μM), were added along with Cl^−-free medium to each well. The addition of Cl^−-free medium promoted Cl^− efflux in response to LF508-CFTR activation and the resulting membrane depolarization was optically monitored using the FRET-based voltage-sensor dyes.
To identify potentiators of ΔF508-CFTR, a double-addition HTS assay format was developed. During the first addition, a Cl^−-free medium with or without test compound was added to each well. After 22 sec, a second addition of Cl^−-free medium containing 2-10 μM forskolin was added to activate ΔF508-CFTR. The extracellular Cl^− concentration following both additions was 28 mM, which promoted Cl^− efflux in response to ΔF508-CFTR activation and the resulting membrane depolarization was optically monitored using the FRET-based voltage-sensor dyes.
NIH3T3 mouse fibroblasts stably expressing ΔF508-CFTR are used for optical measurements of membrane potential. The cells are maintained at 37° C. in 5% CO2 and 90% humidity in Dulbecco's modified Eagle's medium supplemented with 2 mM glutamine, 10% fetal bovine serum, 1×NEAA, (3-ME, 1× pen/strep, and 25 mM HEPES in 175 cm^2 culture flasks. For all optical assays, the cells were seeded at 30,000/well in 384-well matrigel-coated plates and cultured for 2 hrs at 37° C. before culturing at 27° C. for 24 hrs. for the potentiator assay. For the correction assays, the cells are cultured at 27° C. or 37° C. with and without compounds for 16-24 hoursB) Electrophysiological Assays for assaying ΔF508-CFTR modulation properties of compounds
Compounds of the invention are useful as modulators of ATP binding cassette transporters. Table 3 below illustrates the EC50 and relative efficacy of certain embodiments in Table 1.

T1 sequence (P13569 with tags, fused parts or gaps DEL508-508): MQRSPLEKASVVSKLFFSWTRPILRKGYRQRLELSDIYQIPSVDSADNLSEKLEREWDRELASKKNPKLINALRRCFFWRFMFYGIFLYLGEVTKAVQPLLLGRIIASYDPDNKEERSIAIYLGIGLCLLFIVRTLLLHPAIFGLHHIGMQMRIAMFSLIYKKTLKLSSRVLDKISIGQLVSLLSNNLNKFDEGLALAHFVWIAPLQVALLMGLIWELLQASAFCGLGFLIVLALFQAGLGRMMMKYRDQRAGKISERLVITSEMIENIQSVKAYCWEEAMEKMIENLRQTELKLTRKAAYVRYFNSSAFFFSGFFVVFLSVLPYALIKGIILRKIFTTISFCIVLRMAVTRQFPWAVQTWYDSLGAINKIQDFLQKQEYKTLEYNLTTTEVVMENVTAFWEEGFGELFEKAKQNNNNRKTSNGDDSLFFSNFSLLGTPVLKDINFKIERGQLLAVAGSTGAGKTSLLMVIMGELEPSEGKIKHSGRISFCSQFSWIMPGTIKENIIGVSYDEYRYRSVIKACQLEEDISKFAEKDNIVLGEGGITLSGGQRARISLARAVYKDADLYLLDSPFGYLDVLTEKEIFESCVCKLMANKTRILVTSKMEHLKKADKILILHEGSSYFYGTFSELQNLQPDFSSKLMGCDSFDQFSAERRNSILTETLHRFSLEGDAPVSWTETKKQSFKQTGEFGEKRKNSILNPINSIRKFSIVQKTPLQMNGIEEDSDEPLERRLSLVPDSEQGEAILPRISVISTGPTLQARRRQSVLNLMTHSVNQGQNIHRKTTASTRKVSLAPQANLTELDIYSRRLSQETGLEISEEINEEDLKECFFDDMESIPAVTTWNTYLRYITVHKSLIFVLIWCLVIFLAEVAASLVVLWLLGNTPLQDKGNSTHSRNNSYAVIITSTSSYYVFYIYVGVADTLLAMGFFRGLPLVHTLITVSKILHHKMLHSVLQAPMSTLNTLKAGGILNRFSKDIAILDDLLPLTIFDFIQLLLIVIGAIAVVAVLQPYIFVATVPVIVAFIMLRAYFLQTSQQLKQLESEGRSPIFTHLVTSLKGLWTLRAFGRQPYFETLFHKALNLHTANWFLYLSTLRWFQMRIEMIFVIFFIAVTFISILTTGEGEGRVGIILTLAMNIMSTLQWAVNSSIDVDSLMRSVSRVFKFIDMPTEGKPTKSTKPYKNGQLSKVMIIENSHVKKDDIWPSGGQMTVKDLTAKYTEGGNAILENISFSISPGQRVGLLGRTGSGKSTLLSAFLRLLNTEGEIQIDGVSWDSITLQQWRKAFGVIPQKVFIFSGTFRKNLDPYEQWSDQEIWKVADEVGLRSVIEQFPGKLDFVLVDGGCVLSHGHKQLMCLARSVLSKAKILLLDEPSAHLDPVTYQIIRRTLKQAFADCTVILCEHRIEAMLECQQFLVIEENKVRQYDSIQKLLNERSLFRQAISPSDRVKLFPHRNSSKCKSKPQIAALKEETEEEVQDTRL

O=C(Nc1ccc(F)cc1)C(=O)c1c[nH]c2ccc(Br)cc12 [Cmpd 1]
EC50: < 1000 nM
% Activity: + (“+” means <25%)

O=C(Nc1ccc(N2CCN(C(c3ccccc3)c3ccccc3)CC2)cc1)C(=O)c1c[nH]c2ccccc12 [Cmpd 2]
EC50: 1000 to 5000 nM
% Activity: + (“+” means <25%)

CCc1ccccc1NC(=O)C(=O)c1c[nH]c2ccccc12 [Cmpd 3, N-(2-Ethyl-phenyl)-2-(1H-indol-3-yl)-2-oxo-acetamide]
EC50: < 1000 nM
% Activity: ++ (“++” means between 25% to 100%)

O=C(Nc1ccc2cc[nH]c2c1)C(=O)c1c[nH]c2ccccc12 [Cmpd 4]
EC50: < 1000 nM
% Activity: ++ (“++” means between 25% to 100%)

CCCc1ccccc1NC(=O)C(=O)c1c[nH]c2ccccc12 [Cmpd 5]
EC50: < 1000 nM
% Activity: ++ (“++” means between 25% to 100%)

CC(C)c1ccccc1NC(=O)C(=O)c1c[nH]c2ccccc12 [Cmpd 6]
EC50: < 1000 nM
% Activity: ++ (“++” means between 25% to 100%)

CC(C)(C)c1ccc(NC(=O)C(=O)c2c[nH]c3ccccc23)cc1 [Cmpd 7]
EC50: < 1000 nM
% Activity: ++ (“++” means between 25% to 100%)

O=C(Nc1ccccc1-c1ccccc1)C(=O)c1c[nH]c2ccccc12 [Cmpd 8]
EC50: < 1000 nM
% Activity: ++ (“++” means between 25% to 100%)

O=C(Nc1ccccc1)C(=O)c1c[nH]c2ccccc12 [Cmpd 9]
EC50: 1000 to 5000 nM
% Activity: ++ (“++” means between 25% to 100%)

O=C(Nc1cccc(C(F)(F)F)n1)C(=O)c1c[nH]c2ccccc12 [Cmpd 10]
EC50: < 1000 nM
% Activity: ++ (“++” means between 25% to 100%)

Cc1ccccc1Oc1ccccc1NC(=O)C(=O)c1c[nH]c2ccccc12 [Cmpd 11]
EC50: < 1000 nM
% Activity: ++ (“++” means between 25% to 100%)

C=C(C)c1ccccc1NC(=O)C(=O)c1c[nH]c2ccccc12 [Cmpd 12]
EC50: < 1000 nM
% Activity: ++ (“++” means between 25% to 100%)

CCCCc1ccccc1NC(=O)C(=O)c1c[nH]c2ccccc12 [Cmpd 13]
EC50: < 1000 nM
% Activity: ++ (“++” means between 25% to 100%)

O=C(Nc1ccccc1Oc1ccc(Cl)cc1Cl)C(=O)c1c[nH]c2ccccc12 [Cmpd 14]
EC50: < 1000 nM
% Activity: ++ (“++” means between 25% to 100%)

O=C(Nc1ccccc1CN1CCCCC1)C(=O)c1c[nH]c2ccccc12 [Cmpd 15]
EC50: < 1000 nM
% Activity: ++ (“++” means between 25% to 100%)

Cn1cc(C(=O)C(=O)Nc2ccccc2)c2ccccc21 [Cmpd 16]
EC50: > 5000 nM
% Activity: ++ (“++” means between 25% to 100%)

Cn1cc(C(=O)C(=O)Nc2ccccc2-c2ccccc2)c2ccccc21 [Cmpd 17]
EC50: > 5000 nM
% Activity: + (“+” means <25%)

O=C(Nc1ccccc1CN1CCCC1)C(=O)c1c[nH]c2ccccc12 [Cmpd 18]
EC50: 1000 to 5000 nM
% Activity: ++ (“++” means between 25% to 100%)

Nc1cc(NC(=O)C(=O)c2c[nH]c3ccccc23)cc(C(F)(F)F)c1 [Cmpd 19]
EC50: 1000 to 5000 nM
% Activity: ++ (“++” means between 25% to 100%)

CN1Cc2c(NC(=O)C(=O)c3c[nH]c4ccccc34)cccc2C(c2ccccc2)C1 (stereo not shown) [Cmpd 20]
EC50: < 1000 nM
% Activity: ++ (“++” means between 25% to 100%)

Cc1ccc(C)n1-c1ccccc1NC(=O)C(=O)c1c[nH]c2ccccc12 [Cmpd 21]
EC50: 1000 to 5000 nM
% Activity: ++ (“++” means between 25% to 100%)

O=C(Nc1ccccc1OC(F)F)C(=O)c1c[nH]c2ccccc12 [Cmpd 22]
EC50: 1000 to 5000 nM
% Activity: ++ (“++” means between 25% to 100%)

O=C(Nc1ccccc1F)C(=O)c1c[nH]c2ccccc12 [Cmpd 23]
EC50: < 1000 nM
% Activity: ++ (“++” means between 25% to 100%)

CC(C)(C)c1cc(C(C)(C)C)c(NC(=O)C(=O)c2c[nH]c3ccccc23)cc1O [Cmpd 24]
EC50: < 1000 nM
% Activity: ++ (“++” means between 25% to 100%)

CC(C)(C)c1cc2cc[nH]c2cc1NC(=O)C(=O)c1c[nH]c2ccccc12 [Cmpd 25]
EC50: < 1000 nM
% Activity: ++ (“++” means between 25% to 100%)

CC(C)(C)c1ccccc1NC(=O)C(=O)c1c[nH]c2ccccc12 [Cmpd 26]
EC50: < 1000 nM
% Activity: ++ (“++” means between 25% to 100%)
